Assay [1] has as its system Cells. The assay is described as follows: cells. To be noted: 72 h.
The test system of assay [2] is Cells. Particulars: read-out: Antiprolif. activity GI50; 72 h, CellTiter-Glo; cell line not named. Background: In ATP-based viability assays light output follows the ATP content of the culture.
Setting [3] is: read-out: Antiprolif. activity GI50.
The mark [4] stands for this setting: read-out: Antiprolif. activity GI50, 72 h, CellTiter-Glo, cell line not named.

Where two headings read alike, the source gives them in different places.

`CNc1nc(Cl)nc2c1ncn2Cc1ccc(OC)c(Cl)c1` [FE150, 2-chloro-9-(3-chloro-4-methoxybenzyl)-N-methyl-9H-purin-6-amine]: the GI50 (usually the concentration at which growth is held to half of that of the control) in the assay with Cells [1] (setting [3]) was no more than 10 µM.

For `CNc1nc(Cl)nc2c1ncn2Cc1ccc(C(=O)OC)cc1` [ZA311, Methyl 4-((2-chloro-6-(methylamino)-9H-purin-9-yl)methyl)benzoate], in the assay on Cells [1] (setting [3]), the GI50 was no more than 10 µM.

For `CNc1nc(Cl)nc2c1ncn2Cc1cccc(C(=O)OC)c1` [ZA347, Methyl 3-((2-chloro-6-(methylamino)-9H-purin-9-yl)methyl)benzoate], the GI50 in the assay on Cells [1] (setting [4]) was no more than 10 µM. For `CNc1nc(Cl)nc2c1ncn2Cc1cccc(Cl)c1` [ZA349, 2-chloro-9-(3-chlorobenzyl)-N-methyl-9H-purin-6-amine], the GI50 in the assay with Cells [1] (setting [3]) is no more than 10 µM. `CNc1nc(Cl)nc2c1ncn2Cc1ccccc1NS(C)(=O)=O` [ZA364, N-(2-((2-chloro-6-(methylamino)-9H-purin-9-yl)methyl)phenyl)methanesulfonamide]: in the assay with Cells [1] (setting [4]), the GI50 stood at 21 µM. As to `CNc1nc(Cl)nc2c1ncn2Cc1cc(Cl)ccc1NS(C)(=O)=O` [ZA400, N-(4-chloro-2-((2-chloro-6-(methylamino)-9H-purin-9-yl)methyl)phenyl) methanesulfonamide], the GI50 in the assay on Cells [2] was found to be 21 µM; in the assay on Cells [1] (setting [4]), 31 µM.
